Data: patent publication US10195201B2, “Heteroaryl-pyrimidinone compounds as PDE2 inhibitors” (Merck Sharp & Dohme Corp., priority 2015, dated 2019)
Where two headings read alike, the source gives them in different places.

Tests used:
human PDE2A1 = human PDE2A1 (Homo sapiens (Human), UniProt O00408); assay: PDE2 fluorescence polarization (IMAP FP) inhibition assay, human enzyme; format: biochemical
Description: (§1) The activity of the compounds in accordance with the present invention as PDE2 inhibitors may be readily determined using a fluorescence polarization (FP) methodology (Huang, W., et al., J. Biomol Screen, 2002, 7: 215).
Selectivity for PDE2, as compared to other PDE families, was assessed using the IMAPR technology. Human PDE10A2 enzyme was prepared from cytosolic fractions of transiently transfected HEK cells. All other PDE's were GST Tag human enzyme expressed in insect cells and were obtained from BPS Bioscience (San Diego, Calif.): PDE1A (Cat#60010), human PDE2A1(Cat#60020), PDE3A (Cat#60030), PDE4A1A (Cat#60040), PDE5A1 (Cat#60050), PDE6C (Cat#60060), PDE7A (Cat#60070), PDE8A1 (Cat#60080), PDE9A2 (Cat#60090), PDE11A4 (Cat#60110).
Assays for PDE 1 through 11 were performed in parallel at room temperature in 384-well microtiter plates with an incubation volume of 20.2 μL. Solutions of test compounds were prepared in DMSO and serially diluted with DMSO to yield 30 μL of each of ten solutions differing by 3-fold in concentration, at 32 serial dilutions per plate. […] A Labcyte POD 810 (Labcyte, Sunnyvale, Calif.) was used to dispense 200 nL from each well of the titration plate to make eleven copies of the assay plate for each titration, one copy for each PDE enzyme. A solution of each enzyme (dilution from aliquots, sufficient to produce 20% substrate conversion) and a separate solution of FAM-labeled cAMP or FAM-labeled cGMP from Molecular Devices (Sunnyvale, Calif., product # R7506 or cGMP#R7508), at a final concentration of 50 nM were made in the assay buffer (10 mM Tris HCl, pH 7.2, 10 mM MgCl2, 0.05% NaN3 0.01% Tween-20, and 1 mM DTT). Note that the substrate for PDE2 is 50 nM FAM cAMP containing 1000 nM of cGMP. The enzyme and the substrate were then added to the assay plates in two consecutive additions of 10 μL and then shaken to mix. The reaction was allowed to proceed at room temperature for 60 minutes. A binding solution was then made from the kit components, comprised of 80% Solution A, 20% Solution B and binding reagent at a volume of 1/600 the total binding solution. The enzymatic reaction was stopped by addition of 60 μL of the binding solution to each well of the assay plate. The plates were sealed and shaken for 10 seconds. The plates were incubated at room temperature for one hour, then the parallel and perpendicular fluorescence was measured using a Tecan Genios Pro plate reader (Tecan, Switzerland). The apparent inhibition constants for the compounds against all 11 PDE's was determined from the parallel and perpendicular fluorescent readings as described for PDE10 FP assay using the following apparent KM values for each enzyme and substrate combination: PDE1A (FAM cGMP) 70 nM, human PDE2A1 (FAM cAMP) 10,000 nM, PDE3A (FAM cAMP) 50 nM, PDE4A1A (FAM cAMP) 1500 nM, PDE5A1 (FAM cGMP) 400 nM, PDE6C (FAM cGMP) 700 nM, PDE7A (FAM cAMP) 150 nM, PDE8A1 (FAM cAMP) 50 nM, PDE9A2 (FAM cGMP) 60 nM, […] (FAM cAMP) 150 nM, PDE11A4 (FAM cAMP) 1000 nM. The intrinsic PDE2 inhibitory activity of a compound which may be used in accordance with the present invention may be determined by these assays. […]

Rhesus PDE2A3 = Rhesus PDE2A3 (Macaca mulatta, UniProt B3VTJ2); assay: PDE2 fluorescence polarization (IMAP FP) inhibition assay, rhesus enzyme; format: biochemical, rhesus macaque
Description: as §1
In a typical experiment the PDE2 inhibitory activity of the compounds of the present invention was determined in accordance with the following experimental method. Rhesus PDE2A3 was amplified from rhesus macaque brain cDNA (Biochain Institute, Hayward, Calif.) using primers based on human PDE2A sequence (accession NM_002599.3) where the forward primer containing a Kozak consensus was 5′-[…]-3′ and the reverse primer was 5′-[…]-3′. Amplification with Easy-A High-Fidelity PCR cloning enzyme (Stratagene, La Jolla, Calif.) was 95° C. for 2 minutes followed by thirty three cycles of 95° C. for 40 seconds, 52° C. for 30 seconds, and 72° C. for 2 minutes 48 seconds. Final extension was 72° C. for 7 minutes. The PCR product was TA cloned into pcDNA3.3-TOPO (Invitrogen, Carlsbad, Calif.) according to standard protocol. A consensus sequence was developed from multiple clones and then deposited into GenBank (EU812167). AD293 cells (Stratagene, La Jolla, Calif.) with 70-80% confluency were transiently transfected with rhesus PDE2A3/pcDNA3.3-TOPO using Lipofectamine 2000 according to manufacturer specifications (Invitrogen, Carlsbad, Calif.). Cells were harvested 48 hours post-transfection and lysed by sonication (setting 3, 10×5 sec pulses) in a buffer containing 20 mM HEPES pH 7.4, 1 mM EDTA and Complete Protease Inhibitor Cocktail Tablets (Roche, Indianapolis, Ind.). Lysate was collected by centrifugation at 75,000×g for 20 minutes at 4° C. and supernatant utilized for evaluation of PDE2 activity. The fluorescence polarization assay for cyclic nucleotide phosphodiesterases was performed using an IMAP® FP kit supplied by Molecular Devices, Sunnyvale, Calif. (product # R8139). […] Assays were performed at room temperature in 384-well microtiter plates with an incubation volume of 20.2 μL. Solutions of test compounds were prepared in DMSO and serially diluted with DMSO to yield 8 μL of each of 10 solutions differing by 3-fold in concentration, at 32 serial dilutions per plate. […] 0% of inhibition is determined by using DMSO (1% final concentrations).
A Labcyte Echo 555 (Labcyte, Sunnyvale, Calif.) is used to dispense 200 nL from each well of the titration plate to the 384 well assay plate. Ten microliters of a solution of enzyme (1/2000 final dilution from aliquots; sufficient to produce 20% substrate conversion) was added to the assay plate. Next 10 uL of a separate solution of the substrate FAM-labeled cAMP (50 nM final concentration product # R7506 from Molecular Devices) and the activator cGMP (1 uM final concentration), prepared in the assay buffer (10 mM Tris HCl, pH 7.2, 10 mM MgCl2, 0.05% NaN3 0.01% Tween-20, and 1 mM DTT) was added to the assay plate and shaken to mix. The reaction is allowed to proceed at room temperature for 60 minutes. A binding solution is then made from the kit components, comprised of 80% Solution A, 20% Solution B and binding reagent at a volume of 1/600 the total binding solution. The enzymatic reaction is stopped by addition of 60 μL of the binding solution to each well of the assay plates and the plates are sealed and shaken for 30 seconds. The plate was incubated at room temperature for at least one hour prior to determining the fluorescence polarization (FP). The parallel and perpendicular fluorescence of each well of the plate was measured using a Tecan Genios Pro plate reader (Tecan, Switzerland) or Perkin Elmer EnVision™ plate reader (Waltham, Mass.). Fluorescence polarization (mP) was calculated from the parallel (S) and perpendicular (P) fluorescence of each sample well and the analogous values for the median control well, containing only substrate (So and Po), using the following equation: Polarization (mP)=1000*(S/So−P/Po)/(S/So+P/Po).

[1] = LabA, read-out: hPDE2 Ki (nM) LabA
[2] = LabB, read-out: hPDE2 Ki (nM) LabB
[3] = LabA, read-out: rhPDE2 Ki (nM) LabA
[4] = LabB, read-out: rhPDE2 Ki (nM) LabB

Rhesus PDE2A3, sequence (B3VTJ2 1-941): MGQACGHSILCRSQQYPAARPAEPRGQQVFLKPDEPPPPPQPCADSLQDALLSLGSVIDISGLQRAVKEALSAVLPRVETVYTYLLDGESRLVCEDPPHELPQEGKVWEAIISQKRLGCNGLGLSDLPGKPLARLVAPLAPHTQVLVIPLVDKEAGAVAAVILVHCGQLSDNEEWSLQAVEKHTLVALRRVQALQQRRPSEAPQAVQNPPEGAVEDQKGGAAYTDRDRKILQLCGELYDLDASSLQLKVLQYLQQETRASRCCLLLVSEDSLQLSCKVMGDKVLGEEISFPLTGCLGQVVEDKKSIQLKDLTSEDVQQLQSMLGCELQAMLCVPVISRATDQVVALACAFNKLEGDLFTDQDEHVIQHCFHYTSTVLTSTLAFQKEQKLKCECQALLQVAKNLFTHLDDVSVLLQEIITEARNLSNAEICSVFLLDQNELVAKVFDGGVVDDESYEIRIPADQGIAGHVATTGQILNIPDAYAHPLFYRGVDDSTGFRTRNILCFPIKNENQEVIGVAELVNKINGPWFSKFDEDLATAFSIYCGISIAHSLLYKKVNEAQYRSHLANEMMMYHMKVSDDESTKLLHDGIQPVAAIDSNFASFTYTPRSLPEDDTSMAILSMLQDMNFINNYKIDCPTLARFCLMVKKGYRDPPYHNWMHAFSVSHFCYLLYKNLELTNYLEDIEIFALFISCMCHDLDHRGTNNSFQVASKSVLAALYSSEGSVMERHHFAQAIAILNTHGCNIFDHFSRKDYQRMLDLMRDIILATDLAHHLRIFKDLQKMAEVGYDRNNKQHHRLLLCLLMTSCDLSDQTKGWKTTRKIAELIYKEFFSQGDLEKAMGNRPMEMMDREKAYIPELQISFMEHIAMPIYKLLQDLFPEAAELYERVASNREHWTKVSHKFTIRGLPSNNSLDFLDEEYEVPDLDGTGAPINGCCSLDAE
human PDE2A1, sequence (O00408 other isoform, or with tags, fused parts or gaps): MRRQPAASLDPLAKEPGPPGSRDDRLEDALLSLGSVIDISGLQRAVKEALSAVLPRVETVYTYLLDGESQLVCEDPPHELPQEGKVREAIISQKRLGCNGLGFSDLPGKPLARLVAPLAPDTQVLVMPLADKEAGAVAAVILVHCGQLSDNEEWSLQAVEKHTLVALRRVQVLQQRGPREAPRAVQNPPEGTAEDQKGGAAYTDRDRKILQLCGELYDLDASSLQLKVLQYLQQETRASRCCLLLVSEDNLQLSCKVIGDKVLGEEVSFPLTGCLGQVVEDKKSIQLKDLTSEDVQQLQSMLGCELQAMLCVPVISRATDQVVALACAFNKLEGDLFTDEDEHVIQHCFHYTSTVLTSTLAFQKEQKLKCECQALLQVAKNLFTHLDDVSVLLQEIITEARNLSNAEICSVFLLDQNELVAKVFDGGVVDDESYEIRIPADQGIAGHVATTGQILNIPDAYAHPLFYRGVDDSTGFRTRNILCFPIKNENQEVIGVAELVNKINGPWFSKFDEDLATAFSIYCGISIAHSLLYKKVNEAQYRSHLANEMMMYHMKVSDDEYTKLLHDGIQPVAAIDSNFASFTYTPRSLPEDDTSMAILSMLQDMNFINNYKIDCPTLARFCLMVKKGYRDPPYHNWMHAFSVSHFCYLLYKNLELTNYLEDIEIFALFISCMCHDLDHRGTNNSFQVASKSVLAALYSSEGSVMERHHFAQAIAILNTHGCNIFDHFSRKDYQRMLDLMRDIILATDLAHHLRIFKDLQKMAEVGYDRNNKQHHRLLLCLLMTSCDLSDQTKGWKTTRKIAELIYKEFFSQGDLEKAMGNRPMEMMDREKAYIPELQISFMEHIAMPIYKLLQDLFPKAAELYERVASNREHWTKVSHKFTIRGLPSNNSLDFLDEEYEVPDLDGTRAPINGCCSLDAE

Ki (human PDE2A1; [1]) [nM] | Ki (human PDE2A1; [2]) [nM] | Ki (Rhesus PDE2A3; [3]) [nM] | Ki (Rhesus PDE2A3; [4]) [nM] | Structure (SMILES)
6 | 12 | 10 | 13 | Cc1nc(-c2nnc([C@H](C)c3ccc(C(F)(F)F)cc3)s2)cc(=O)[nH]1 (single isomer, unassigned) [Example 6]
– | 22 | – | 20 | Cc1nc(-c2nnc([C@H](C)c3ccc(C(F)(F)F)cc3F)s2)cc(=O)[nH]1 (single isomer, unassigned) [Example 4]
403 | – | 352 | – | Cc1nc(-c2ncc(C(C)c3ccc(C(F)(F)F)cc3)o2)cc(=O)[nH]1 (centres unmarked) [Example 8, 2-Methyl-6-(5-(1-(4-(trifluoromethyl)phenyl)ethyl)oxazol-2-yl)pyrimidin-4(3H)-one]
60 | – | 96 | 481 | Cc1nc(-c2ncc(C(C)c3ccc(C(F)(F)F)cc3)s2)cc(=O)[nH]1 (centres unmarked) [Example 1, 2-Methyl-6-(5-(1-(4-(trifluoromethyl)phenyl)ethyl)thiazol-2-yl)pyrimidin-4(3H)-one]
13 | 62 | 21 | 57 | Cc1nc(-c2nnc([C@H](C)c3ccc(C(F)(F)F)cc3)s2)cc(=O)[nH]1 (single isomer, unassigned) [Example 7]
312 | – | 516 | – | Cc1nc(-c2cc(=O)[nH]c(C)n2)cc(C(C)c2ccc(C(F)(F)F)cc2)n1 (centres unmarked) [Example 48, 2,2′-dimethyl-6′-(1-(4-(trifluoromethyl)phenyl)ethyl)-[4,4′-bipyrimidin]-6(1H)-one]
79 | – | 86 | 159 | Cc1nc(-c2nnc([C@H](C)c3ccc(C(F)(F)F)cc3)o2)cc(=O)[nH]1 (single isomer, unassigned) [Example 9]
1.4 | – | 2.3 | – | COc1ccc(Cc2nc(-c3cn(C(C)c4ccc(C(F)(F)F)cc4F)cn3)cc(=O)[nH]2)cc1OC (single isomer, unassigned) [Example 18, (R)- or (S)-2-(3,4-dimethoxy-benzyl)-6-(1-(1-(2-fluoro-4-(trifluoromethyl)phenyl)ethyl)-1H-imidazol-4-yl)pyrimidin-4(3H)-one]
76 | – | 106 | – | Cc1nc(-c2cn(C(C)c3ccc(C(F)(F)F)cc3)cn2)cc(=O)[nH]1 (single isomer, unassigned) [Example 17, (R)- or (S)-2-methyl-6-(1-(1-(4-(trifluoro-methyl)phenyl)ethyl)-1H-imidazol-4-yl) pyrimidin-4 (3H)-one]
– | 0.4 | 0.2 | 0.4 | COc1ccc(Cc2nc(-c3cn(C(C)c4ccc(C(F)(F)F)cc4F)cn3)cc(=O)[nH]2)cc1OC (single isomer, unassigned) [Example 19, (R)- or (S)-2-(3,4-dimethoxy-benzyl)-6-(1-(1-(2-fluoro-4-(trifluoromethyl)phenyl)ethyl)-1H-imidazol-4-yl)pyrimidin-4(3H)-one]
21 | – | 24 | 46 | Cc1nc(-c2cn([C@H](C)c3ccc(C(F)(F)F)cc3F)cn2)cc(=O)[nH]1 (single isomer, unassigned) [Example 15]
– | 18 | – | 19 | Cc1nc(-c2nnc([C@H](C)c3ccc(C(F)(F)F)cc3F)s2)cc(=O)[nH]1 (single isomer, unassigned) [Example 5]
